“And” between values parts separate entries of the source, which are not always exact repeats. Equal values may be shown once.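 Step 1: Grow cells in 96-well plates. Step 2: Expose to compound for 48 hours at 5 concentrations. Step 3: Interpolate endpoints linearly; if unreached, use highest concentration. GI50 is the concentration that inhibits growth by half. TGI marks complete inhibition of growth.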 Where a SMILES comes first, the peptide text is derived from it. [ ]: non-standard residue; d: D form. pGlu = O=C1CC[CH](C(=O)O)N1
Key:
Test in all cases: growth of human tumour cells (NCI), 48 h; in the data active means GI50 below about 0.43 µM; inactive means the rest
[1] = test system: SK-MEL-28 melanoma
[2] = test system: KM20L2 colon
[3] = test system: KM12 colon
[4] = test system: UO-31 renal
[5] = test system: NCI-H23 lung
[6] = test system: K-562 leukemia
[7] = test system: HOP-18 NSCLC
[8] = test system: RPMI-8226 leukemia
[9] = test system: CAKI-1 renal
[10] = test system: BT-549 breast

O=[N+]([O-])c1ccc(C[P+](c2ccccc2)(c2ccccc2)c2ccccc2)cc1
> 100 µM: TGI [1] | TGI [2] | TGI [3] | TGI [4] | TGI [5] | TGI [6] | TGI [7] | TGI [8]

O=C1N(C2CCCCC2)CC12CCCCC2
> 100 µM: TGI [1] | TGI [2] | TGI [4] | TGI [5] | TGI [6] | TGI [7] | TGI [8]

CCN1C(=O)N(CC)C2C1NN=c1s/c(=C\c3cccc(F)c3)c(=O)n12 (stereo not given)
7.78 µM: TGI [8]
> 100 µM: TGI [1] | TGI [9] | TGI [3] | TGI [4] | TGI [5] | TGI [6]
inactive: GI50 [1] 13.1 µM | GI50 [4] 0.96 µM | GI50 [5] 0.522 µM
active: GI50 [9] 0.0711 µM | GI50 [3] 0.0856 µM | GI50 [10] 0.209 µM | GI50 [6] 0.041 µM | GI50 [8] 0.119 µM

CC1=C(c2ccccc2)C(c2ccccc2)=C(c2ccccc2)C2(c3ccccc3)C(=O)C(C)CN12 (stereo not given)
> 100 µM: TGI [1] | TGI [2] | TGI [9] | TGI [3] | TGI [4] | TGI [8]

CCNC(=O)C1CCCN1C(=O)C(CCCN=C(N)N)NC(=O)C(CC(C)C)NC(=O)C(CC(C)C)NC(=O)C(Cc1ccc(O)cc1)NC(=O)C(CO)NC(=O)C(Cc1c[nH]c2ccccc12)NC(=O)C(Cc1cnc[nH]1)NC(=O)C1CCC(=O)N1 (stereo not given) ([pGlu]HWSYLLRP-NHEt; configuration not given here)
> 100 µM: TGI [1] | TGI [9] | TGI [3] | TGI [4] | TGI [5] | TGI [10] | TGI [6] | TGI [8]
inactive: GI50 [1] > 100 µM | GI50 [9] > 100 µM | GI50 [3] > 100 µM | GI50 [4] > 100 µM | GI50 [5] > 100 µM | GI50 [10] > 100 µM | GI50 [6] > 100 µM | GI50 [8] 74.3 µM

O=C(Oc1cccc(F)c1OC(=O)c1cccc(O)c1)c1cccc(O)c1
> 100 µM: TGI [1] | TGI [9] | TGI [3] | TGI [4] | TGI [5] | TGI [10] | TGI [6] | TGI [8]
inactive: GI50 [1] 80.1 µM | GI50 [9] 7.47 µM | GI50 [3] 23.1 µM | GI50 [4] 5.56 µM | GI50 [5] 26.9 µM | GI50 [10] 24.4 µM | GI50 [6] 38 µM | GI50 [8] 14.5 µM

C[C@]12CC[C@@H]3c4ccc(OC(=O)N(CCCl)CCCl)cc4CC[C@H]3[C@@H]1CC[C@@H]2O
14 µM: TGI [4] | TGI [7]
> 47.5 µM: TGI [6]
inactive: GI50 [1] 3.75 µM | GI50 [9] 2.44 µM | GI50 [3] 3.1 µM | GI50 [4] 3.12 µM | GI50 [5] 2.79 µM | GI50 [10] 4.64 µM | GI50 [8] 1.62 µM
17.1 µM: TGI [10]
9.77 µM: TGI [3]
5.42 µM: TGI [8]

C=C(C)C(O)CCC1(C)C=Cc2c(c(C)cc3c2[nH]c2ccccc23)O1 (stereo not given)
25 µM and 8.01 µM: TGI [8]
inactive: GI50 [3] 2 µM | GI50 [4] 12 µM | GI50 [10] 12.9 µM | GI50 [6] 2.78 µM | GI50 [8] 2.96 µM
7.57 µM: TGI [2]
25 µM: TGI [1]
25 µM and 27.3 µM: TGI [4]
23.3 µM: TGI [5]
24.6 µM and 7.13 µM: TGI [6]
25.5 µM: TGI [10]
12.5 µM and 4.32 µM: TGI [3]

O=C(CCCCCCNC(=O)c1cnc(N(c2ccccc2)c2ccccc2)nc1)NO
> 100 µM: TGI [6] | TGI [8]
33.3 µM: TGI [1]
> 84.3 µM: TGI [10]
38.6 µM: TGI [5]
36.6 µM: TGI [4]
inactive: GI50 [1] 3.41 µM | GI50 [9] 6.38 µM | GI50 [3] 3.26 µM | GI50 [4] 4.63 µM | GI50 [5] 3.97 µM | GI50 [10] 12.5 µM | GI50 [6] 2.47 µM | GI50 [8] 1.29 µM
43.3 µM: TGI [9]
21.7 µM: TGI [3]

CC(=O)NC1C(OC[C@@H](CC(=O)N[C@@H](CC(=O)O)CC(=O)N[C@H](CC(=O)N[C@@H](CCCN)CC(=O)N[C@@H](CCCN)CC(=O)N[C@H](CC(N)=O)C(C)C)C(C)C)NC(=O)C[C@@H](N)C(C)C)OC(CO)C(O)C1O (stereo not given in full)
> 100 µM: TGI [1] | TGI [9] | TGI [3] | TGI [4] | TGI [5] | TGI [10] | TGI [6] | TGI [8]
inactive: GI50 [1] > 100 µM | GI50 [9] > 100 µM | GI50 [3] > 100 µM | GI50 [4] > 100 µM | GI50 [5] > 100 µM | GI50 [10] > 100 µM | GI50 [6] > 100 µM | GI50 [8] > 100 µM

CCOC(=O)C12CCCC1(O)N(NC(=O)OC(C)(C)C)C(C)=C2C(=O)OC (stereo not given)
> 100 µM: TGI [2] | TGI [9] | TGI [3] | TGI [4] | TGI [5] | TGI [6] | TGI [7] | TGI [8]

COc1ncnc2c(-c3ccccc3)cn(COCc3ccccc3)c12
13 µM: TGI [8]
7.6 µM: TGI [10]
> 100 µM: TGI [9] | TGI [5] | TGI [6]
inactive: GI50 [1] 3.33 µM | GI50 [9] 3.02 µM | GI50 [3] 3.1 µM | GI50 [4] 2.58 µM | GI50 [5] 3.02 µM | GI50 [10] 2.57 µM | GI50 [6] 3.32 µM | GI50 [8] 2.03 µM
19.9 µM: TGI [3]
48.9 µM: TGI [1]
12 µM: TGI [4]

O=C(O)CCN(CCCCN(CCC(=O)O)CCC(=O)O)CCC(=O)O
> 100 µM: TGI [1] | TGI [9] | TGI [3] | TGI [5] | TGI [6] | TGI [7] | TGI [8]

COc1ccc(/C=C/C(=O)c2cc(OC)c(OC)c(OC)c2)cc1OCc1cn(Cc2ccc(F)cc2)nn1
35.5 µM: TGI [1]
inactive: GI50 [1] 5.62 µM | GI50 [9] 4.79 µM | GI50 [3] 3.14 µM | GI50 [4] 4 µM | GI50 [5] 18.9 µM | GI50 [10] 3.45 µM | GI50 [6] 3.6 µM | GI50 [8] 1.7 µM
6.3 µM: TGI [8]
18.2 µM: TGI [3]
64.2 µM: TGI [5]
> 100 µM: TGI [9] | TGI [6]
27.7 µM: TGI [10]
79.8 µM: TGI [4]

N.N.N.N.[Co+3].[N-]=[N+]=[N-].[N-]=[N+]=[N-].[N-]=[N+]=[N-]
> 100 µM: TGI [1] | TGI [2] | TGI [3] | TGI [4] | TGI [5] | TGI [6] | TGI [8]
inactive: GI50 [1] 47.1 µM | GI50 [2] > 100 µM | GI50 [3] > 100 µM | GI50 [4] 29.2 µM | GI50 [5] > 100 µM | GI50 [6] > 100 µM | GI50 [8] > 100 µM

CCc1ccccc1NC(=O)C1=C(C)NC(C)=C(C(=O)Nc2ccccc2CC)C1c1ccccc1Cl
> 100 µM: TGI [1] | TGI [2] | TGI [9] | TGI [3] | TGI [4] | TGI [5] | TGI [6] | TGI [8]
